From patent US4650900A, “Aminoalkyl substituted urea derivatives and method of treatment” (H. Lundbeck A/S, priority 1985, dated 1987)

What was measured:
Type in all cases: in vivo
[1] = test system: P 388 lymphocytic leukaemia; assay: Antitumor test in mice, P 388 lymphocytic leukaemia model (ILS %)
From the text: (§1) The compound N-(4-dimethylamino-2,2-diphenyl-3-methyl-1-butyl)-urea, (in the following called Lu 9-110), has been tested in mice given several daily/weekly injections against the following experimental model tumors:
P 388 lymphocytic leukaemia

[2] = test system: Ehrlich Ascites tumor (EAT); assay: Antitumor test in mice, Ehrlich Ascites tumor (EAT) model (ILS %); conditions: i.p. suspension in methylcellulose, q 8 hrs × 6, 150 mg/kg
From the text: as §1
Ehrlich Ascites tumor (EAT)

[3] = test system: L 1210 lymphoid leukaemia; assay: Antitumor test in mice, L 1210 lymphoid leukaemia model (ILS %); conditions: L 1210, i.p. suspension in methylcellulose, q 8 hrs × 6, 150 mg/kg
From the text: as §1
L 1210 lymphoid leukaemia

[4] = Toxicity of Lu 9-110 (LD10, LD50); conditions: for LD50: mouse, in vivo, ip
[5] = Preliminary toxicity experiments over 1 and 4 weeks (myelosuppression); conditions: repeated administration, mice
[6] = i.p. solution, accumulated dose
[7] = i.p. suspension, accumulated dose (independent of schedule)

**Q.** With `CC(CN(C)C)C(CNC(N)=O)(c1ccccc1)c1ccccc1` (stereo not shown) [Lu 9-110, N-(4-Dimethylamino-2,2-diphenyl-3-methyl-1-butyl)-urea] as the molecule, how does the ILS % ([1]; P 388, aqueous solution, q 3 hrs × 8, 50 mg/kg) read?
**A.** Its ILS % is 67%.

**Q.** What about the ILS % ([1]; P 388, aqueous solution, q 8 hrs × 3, 100 mg/kg) of the same molecule?
**A.** Its ILS % is 33%.

**Q.** And the ILS % ([1]; P 388, aqueous solution, ×1, 100 mg/kg)?
**A.** Its ILS % is 9%.

**Q.** And the ILS % ([1]; P 388, i.p. suspension in methylcellulose, q 8 hrs × 6, 150 mg/kg)?
**A.** The ILS % was 92%.

**Q.** And the ILS % [2]?
**A.** The ILS % was 120%.

**Q.** What about the ILS % [3] of the same molecule?
**A.** The ILS % was 33%.

**Q.** And the LD10 [4, 6]?
**A.** The LD10 was 300 to 500 mg/kg.

**Q.** What about the LD10 ([4]; i.p. solution, single dose) of the same molecule?
**A.** The LD10 was ~ 100 mg/kg.

**Q.** What about the LD10 [4, 7] of the same molecule?
**A.** Its LD10 is ~ 1100 mg/kg.

**Q.** And the LD50 [4, 6]?
**A.** Its LD50 is 400 to 600 mg/kg.

**Q.** What about the LD50 ([4]; i.p. solution, single dose) of the same molecule?
**A.** The LD50 was ~150 mg/kg.

**Q.** What about the LD50 [4, 7] of the same molecule?
**A.** The LD50 was ~1400 mg/kg.

**Q.** What about the myelosuppression [5] of the same molecule?
**A.** Its myelosuppression is “only very slight myelosuppression”.
